Measured values published in ChEMBL document CHEMBL5143670, “Discovery and preclinical profile of LX-039, a novel indole-based oral selective estrogen receptor degrader (SERD)” (Bioorg Med Chem Lett, 2022).
Each block holds one compound with its values, some of them ahead of it.

Tests used:
[1] = In vivo antagonist activity at estrogen receptor in immature CD-IGS rat assessed as inhibition of estradiol-induced uterine growth by measuring uterine wet weight pretreated with compound for 15 mins followed by estradiol addition administered orally for three days and measured on day 4 relative to control; type: functional; settings: route po; time 4 day
[2] = Induction of estrogen receptor degradation in human MCF7 cells incubated for 4 hrs by in-cell Western assay; type: cell-based; settings: MCF7, 4 h
[3] = Binding affinity to estrogen receptor (unknown origin); parameters: species or system Homo sapiens
MCF7 [4] = assay: Antiproliferative activity against human MCF7 cells measured after 5 days by CellTiter-GLo luminescent assay; type: functional, cell-based; settings: MCF7, 120 h
[5] = Toxicity in Sprague-Dawley rat assessed as adverse effects at 500 mg/kg, po; type: organism-based; settings: in vivo
[6] = Oral bioavailability in Sprague-Dawley rat at 1 mg/kg; type: ADME, organism-based; settings: in vivo
[7] = AUC (0 to 24 hrs) in Sprague-Dawley rat at 1 mg/kg, iv; type: ADME, organism-based; parameters: time < 24 hr, dose 1 mg/kg, route iv; settings: in vivo
[8] = Clearance in iv dosed Sprague-Dawley rat; type: ADME, organism-based; settings: in vivo
[9] = Metabolic stability in mouse hepatocyte assessed as intrinsic clearance measured per 10^6 cells; type: ADME, cell-based; settings: hepatocytes, read-out: CLH
[10] = AUC (0 to 24 hrs) in CD-1 mouse at 2.5 mg/kg, po; type: ADME, organism-based; parameters: time < 24 hr, dose 2.5 mg/kg, route po; settings: in vivo; for AUC(0-t) at 24 h: CD-1, mouse
[11] = Cmax in CD-1 mouse at 2.5 mg/kg, po; type: ADME, organism-based; parameters: dose 2.5 mg/kg, route po; settings: in vivo
[12] = Volume of distribution in iv dosed CD-1 mouse; type: ADME, organism-based; settings: in vivo
[13] = AUC (0 to 24 hrs) in Sprague-Dawley rat at 1 mg/kg, po; type: ADME, organism-based; parameters: time < 24 hr, dose 1 mg/kg, route po; settings: in vivo
[14] = C0 in Beagle dog at 1 mg/kg, iv; type: ADME, organism-based, Canis lupus familiaris; settings: in vivo
Cytochrome P450 3A4 = Cytochrome P450 3A4 (Homo sapiens, UniProt P08684); assay: Inhibition of CYP3A4 (unknown origin) using testosterone as substrate; type: ADME
Chain of Cytochrome P450 3A4 (P08684 whole entry): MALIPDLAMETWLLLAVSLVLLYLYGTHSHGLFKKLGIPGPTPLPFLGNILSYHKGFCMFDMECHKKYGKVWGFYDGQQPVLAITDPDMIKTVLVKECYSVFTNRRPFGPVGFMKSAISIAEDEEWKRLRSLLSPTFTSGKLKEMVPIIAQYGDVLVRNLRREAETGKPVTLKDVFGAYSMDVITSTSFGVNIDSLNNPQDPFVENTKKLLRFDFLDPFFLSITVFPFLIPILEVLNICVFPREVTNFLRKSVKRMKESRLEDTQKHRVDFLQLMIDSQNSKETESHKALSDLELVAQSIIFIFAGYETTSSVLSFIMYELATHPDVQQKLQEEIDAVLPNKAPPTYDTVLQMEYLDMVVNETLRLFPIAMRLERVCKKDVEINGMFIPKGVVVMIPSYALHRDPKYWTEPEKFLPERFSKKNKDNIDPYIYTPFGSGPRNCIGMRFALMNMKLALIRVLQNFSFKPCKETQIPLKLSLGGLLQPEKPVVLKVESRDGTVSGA

[15] = Toxicity in mouse xenografted with human MCF7 cells assessed as body weight change at 20 mg/kg, po administered once daily for 21 days; type: organism-based; settings: in vivo, 504 h, time 21 day
[16] = Metabolic stability in human hepatocytes assessed as intrinsic clearance measured per million cells; type: ADME, cell-based, Hepatocyte; settings: read-out: CLH
[17] = Permeability of the compound from apical to basolateral side in human Caco-2 cells; type: ADME, cell-based; settings: read-out: permeability
MCF7 [18] = assay: Antitumor activity against human MCF7 cells xenografted in mouse assessed as tumor shrinkage by measuring tumor growth inhibition at 60 mg/kg, po administered once daily for 21 days; type: functional; settings: MCF7, 504 h, time 21 day, read-out: TGI
[19] = AUC (0 to 24 hrs) in Beagle dog at 1 mg/kg, iv; type: ADME, organism-based, Canis lupus familiaris; parameters: time < 24 hr, dose 1 mg/kg, route iv; settings: in vivo
[20] = Permeability of the compound from basolateral to apical side in human Caco-2 cells; type: ADME, cell-based; settings: read-out: permeability
MCF7 [21] = assay: Antitumor activity against human MCF7 cells xenografted in mouse assessed as tumor growth inhibition when administered orally once daily for 21 days; type: functional, cell-based; settings: dose 6.5-60 mg/kg, route po, time 21.0 day, DDE = dose-dependent effect
[22] = C0 in Sprague-Dawley rat at 1 mg/kg, iv; type: ADME, organism-based; settings: in vivo
[23] = Cmax in Sprague-Dawley rat at 1 mg/kg, po; type: ADME, organism-based; parameters: dose 1 mg/kg, route po; settings: in vivo
[24] = Protein binding in human plasma assessed as free fraction; type: ADME, cell-free
MCF7 [25] = assay: Antitumor activity against human MCF7 cells xenografted in mouse assessed as tumor growth inhibition at 20 mg/kg, po administered once daily for 21 days; type: functional; settings: MCF7, 504 h, time 21 day, read-out: TGI
[26] = Oral bioavailability in Beagle dog at 1 mg/kg; type: ADME, organism-based, Canis lupus familiaris; settings: in vivo
[27] = Genotoxicity in Salmonella typhimurium by Ames test; type: toxicity; settings: salmonella enterica subsp. enterica serovar typhimurium
Cytochrome P450 2C9 = Cytochrome P450 2C9 (Homo sapiens, UniProt P11712); assay: Inhibition of CYP2C9 (unknown origin); type: ADME
Chain of Cytochrome P450 2C9 (P11712 whole entry): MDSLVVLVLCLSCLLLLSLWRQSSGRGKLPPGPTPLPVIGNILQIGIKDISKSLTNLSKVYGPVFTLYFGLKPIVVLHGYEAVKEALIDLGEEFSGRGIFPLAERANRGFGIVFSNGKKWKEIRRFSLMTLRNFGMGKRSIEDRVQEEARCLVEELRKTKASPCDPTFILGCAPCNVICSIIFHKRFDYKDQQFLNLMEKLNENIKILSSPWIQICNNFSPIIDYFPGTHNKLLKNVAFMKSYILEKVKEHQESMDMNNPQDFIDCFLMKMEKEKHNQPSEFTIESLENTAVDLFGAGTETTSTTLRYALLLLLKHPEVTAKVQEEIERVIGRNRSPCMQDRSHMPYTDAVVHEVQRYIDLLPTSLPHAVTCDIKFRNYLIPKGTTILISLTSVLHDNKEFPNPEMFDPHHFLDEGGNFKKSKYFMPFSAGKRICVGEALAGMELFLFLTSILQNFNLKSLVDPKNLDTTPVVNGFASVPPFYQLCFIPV

Cytochrome P450 1A2 = target: T1, Cytochrome P450 1A2 (Homo sapiens, UniProt P05177); assay: Inhibition of CYP1A2 (unknown origin); type: ADME
T1 sequence (P05177 whole entry): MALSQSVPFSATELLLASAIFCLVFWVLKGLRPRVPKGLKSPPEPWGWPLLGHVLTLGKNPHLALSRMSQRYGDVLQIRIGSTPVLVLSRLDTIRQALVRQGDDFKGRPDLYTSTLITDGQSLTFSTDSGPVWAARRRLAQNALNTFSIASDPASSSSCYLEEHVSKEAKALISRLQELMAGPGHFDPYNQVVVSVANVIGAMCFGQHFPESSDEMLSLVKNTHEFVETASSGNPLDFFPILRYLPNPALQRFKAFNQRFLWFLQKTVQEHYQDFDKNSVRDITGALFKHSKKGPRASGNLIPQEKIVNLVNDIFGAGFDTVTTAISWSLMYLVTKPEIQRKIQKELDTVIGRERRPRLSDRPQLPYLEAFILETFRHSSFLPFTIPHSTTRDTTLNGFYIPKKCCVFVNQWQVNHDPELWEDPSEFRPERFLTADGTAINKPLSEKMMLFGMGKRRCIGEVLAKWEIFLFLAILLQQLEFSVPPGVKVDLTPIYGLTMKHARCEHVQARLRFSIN

MCF7 [28] = assay: Antitumor activity against tamoxifen-resistant human MCF7 cells xenografted in mouse assessed as tumor growth inhibition at 200 mg/kg, po dosed once daily for 21 days relative to control; type: functional; settings: MCF7, 504 h, time 21 day, read-out: TGI
[29] = Cmax in Beagle dog at 1 mg/kg, po; type: ADME, organism-based, Canis lupus familiaris; parameters: dose 1 mg/kg, route po; settings: in vivo
[30] = Toxicity in mouse xenografted with human MCF7 cells assessed as change in body weight at 6.5 to 60 mg/kg, po administered once daily for 21 days; type: organism-based; settings: in vivo, 504 h, dose 6.5-60 mg/kg, time 21 day
[31] = Volume of distribution in iv dosed Sprague-Dawley rat; type: ADME, organism-based; settings: in vivo
[32] = Efflux ratio of apparent permeability from basolateral to apical side over apical to basolateral side in human Caco-2 cells; type: ADME, cell-based
[33] = Toxicity in Beagle dog assessed as adverse effects at 1000 mg/kg, po; type: organism-based, Canis lupus familiaris; settings: in vivo
[34] = AUC (0 to 24 hrs) in Beagle dog at 1 mg/kg, po; type: ADME, organism-based, Canis lupus familiaris; parameters: time < 24 hr, dose 1 mg/kg, route po; settings: in vivo
Cytochrome P450 2D6 = Cytochrome P450 2D6 (Homo sapiens, UniProt P10635); assay: Inhibition of CYP2D6 (unknown origin); type: ADME
Chain of Cytochrome P450 2D6 (P10635 whole entry): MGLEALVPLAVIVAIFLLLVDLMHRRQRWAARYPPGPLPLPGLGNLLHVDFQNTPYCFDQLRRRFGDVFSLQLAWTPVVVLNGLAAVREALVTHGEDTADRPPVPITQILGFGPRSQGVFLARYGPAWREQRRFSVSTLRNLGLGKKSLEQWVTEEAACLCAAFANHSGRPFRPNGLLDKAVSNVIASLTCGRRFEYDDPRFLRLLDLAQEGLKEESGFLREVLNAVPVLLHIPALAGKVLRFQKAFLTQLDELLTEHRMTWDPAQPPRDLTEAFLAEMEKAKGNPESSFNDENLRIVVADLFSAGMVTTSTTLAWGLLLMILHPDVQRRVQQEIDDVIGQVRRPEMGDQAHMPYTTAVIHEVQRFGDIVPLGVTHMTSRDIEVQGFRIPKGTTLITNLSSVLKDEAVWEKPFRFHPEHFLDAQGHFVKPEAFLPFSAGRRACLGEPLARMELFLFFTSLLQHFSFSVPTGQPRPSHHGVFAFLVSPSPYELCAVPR

Cytochrome P450 2C19 = Cytochrome P450 2C19 (Homo sapiens, UniProt P33261); assay: Inhibition of CYP2C19 (unknown origin); type: ADME
Chain of Cytochrome P450 2C19 (P33261 whole entry): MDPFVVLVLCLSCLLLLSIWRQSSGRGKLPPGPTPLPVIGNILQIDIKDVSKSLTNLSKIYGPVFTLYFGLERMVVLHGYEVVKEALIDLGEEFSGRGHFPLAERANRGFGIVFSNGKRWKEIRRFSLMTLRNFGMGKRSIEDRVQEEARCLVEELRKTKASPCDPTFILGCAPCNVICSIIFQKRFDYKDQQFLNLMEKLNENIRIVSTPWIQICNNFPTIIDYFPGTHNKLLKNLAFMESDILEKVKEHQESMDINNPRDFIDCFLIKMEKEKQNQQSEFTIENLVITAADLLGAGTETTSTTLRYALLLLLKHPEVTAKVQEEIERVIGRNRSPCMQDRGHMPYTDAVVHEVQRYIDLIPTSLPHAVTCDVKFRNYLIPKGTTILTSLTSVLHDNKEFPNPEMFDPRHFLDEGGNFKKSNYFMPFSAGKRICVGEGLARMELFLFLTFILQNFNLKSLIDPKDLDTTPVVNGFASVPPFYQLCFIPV

[35] = Metabolic stability in dog hepatocytes assessed as intrinsic clearance measured per million cells; type: ADME, cell-based, Canis lupus familiaris, Hepatocyte; settings: read-out: CLH
[36] = Metabolic stability in rat hepatocytes assessed as intrinsic clearance measured per million cells; type: ADME, cell-based, Hepatocyte; settings: read-out: CLH
[37] = Clearance in iv dosed Beagle dog; type: ADME, organism-based, Canis lupus familiaris; settings: in vivo
[38] = Volume of distribution in iv dosed Beagle dog; type: ADME, organism-based, Canis lupus familiaris; settings: in vivo
[39] = Oral bioavailability in CD-1 mouse at 2.5 mg/kg; type: ADME, organism-based; settings: in vivo; for bioavailability: CD-1, mouse
MCF7 [40] = assay: Antitumor activity against tamoxifen-resistant human MCF7 cells xenografted in mouse assessed as tumor growth inhibition at 3 mg, po dosed once daily for 21 days relative to control; type: functional; settings: time 21 day
[41] = Clearance in iv dosed CD-1 mouse; type: ADME, organism-based; settings: in vivo

SMILES: CC/C(=C(/c1ccc(/C=C/C(=O)O)cc1)c1ccc2[nH]ncc2c1)c1ccc(F)cc1Cl [BRILANESTRANT]
inhibition (INH) [1]: 65%

SMILES: CC/C(=C(/c1ccc(/C=C/C(=O)O)cc1)c1[nH]c2ccccc2c1Cl)c1ccccc1C(F)(F)F
EC50 [2]: 9.95 nM
IC50 [3]: 0.82 nM
IC50 (MCF7 [4]): 13 nM

SMILES: CC/C(=C(/c1ccc(/C=C/C(=O)O)cc1)c1[nH]c2ccccc2c1Br)c1ccc(F)cc1Cl
EC50 [2]: 2.44 nM
IC50 [3]: 0.66 nM
IC50 (MCF7 [4]): 8.53 nM

SMILES: CC/C(=C(/c1ccc(/C=C/C(=O)O)cc1)c1[nH]c2ccccc2c1C)c1ccc(F)cc1Cl
EC50 [2]: 1.26 nM
IC50 (MCF7 [4]): 4.78 nM

SMILES: C[C@]12CC[C@@H]3c4ccc(O)cc4C[C@@H](CCCCCCCCC[S+]([O-])CCCC(F)(F)C(F)(F)F)[C@H]3[C@@H]1CC[C@@H]2O (stereo not given in full) [FULVESTRANT]
TGI (MCF7 [40]): 66%

SMILES: CC/C(=C(/c1ccc(/C=C/C(=O)O)cc1)c1cc2ccccc2[nH]1)c1ccc(F)cc1Cl
EC50 [2]: 39 nM
IC50 [3]: 1.6 nM
IC50 (MCF7 [4]): 21 nM

Second part, led by results:

bioavailability [6]: 56%
AUC(0-t) at 24 h [7]: 4.82 µM·h
clearance [8]: 7.7 mL/min/kg
hepatocyte CLint [9]: 9.8 µL/min/1e6 cells
EC50 [2]: 2.29 nM
AUC ([10]; mouse, 24 h): 15.329 µM·h
Cmax [11]: 1870 nM
Vd [12]: 0.5 L/kg
AUC(0-t) at 24 h [13]: 2.7 µM·h
C0 [14]: 12800 nM
IC50 (Cytochrome P450 3A4): 7000 nM
hepatocyte CLint [16]: 15.2 µL/min/1e6 cells
Papp A→B [17]: 0.94 ×10⁻⁶ cm/s
AUC(0-t) at 24 h [19]: 43.8 µM·h
Papp B→A [20]: 1.25 ×10⁻⁶ cm/s
IC50 [3]: 0.99 nM
C0 [22]: 2610 nM
Cmax [23]: 381 nM
fraction unbound [24]: 0.051
bioavailability [26]: 55%
IC50 (MCF7 [4]): 3.76 nM
IC50 (Cytochrome P450 2C9): 5100 nM
IC50 (Cytochrome P450 1A2): 7700 nM
Cmax [29]: 2550 nM
Vd [31]: 2 L/kg
efflux ratio [32]: 1.32
AUC(0-t) at 24 h [34]: 24.2 µM·h
IC50 (Cytochrome P450 2D6): 14300 nM
IC50 (Cytochrome P450 2C19): 10100 nM
hepatocyte CLint [35]: 8.6 µL/min/1e6 cells
hepatocyte CLint [36]: 11.1 µL/min/1e6 cells
clearance [37]: 0.84 mL/min/kg
Vd [38]: 0.42 L/kg
F ([39]; mouse, po, 2.5 mg/kg): 60.1%
SMILES: CC/C(=C(/c1ccc(/C=C/C(=O)O)cc1)c1[nH]c2ccccc2c1Cl)c1ccc(F)cc1Cl
Activity [5]: Non-Toxic
inhibition (INH) [1]: 94%
Activity [15]: Non-Toxic
inhibition in vivo at 60 mg/kg (MCF7 [18]): 113%
inhibition (MCF7 [21]): Dde
inhibition in vivo at 20 mg/kg (MCF7 [25]): 104%
Activity [27]: Non-Toxic
inhibition in vivo at 200 mg/kg (MCF7 [28]): 91%
Activity [30]: Non-Toxic
Activity [33]: Non-Toxic

EC50 [2]: 2.25 nM
IC50 [3]: 0.18 nM
IC50 (MCF7 [4]): 7.56 nM
SMILES: CC/C(=C(/c1ccc(/C=C/C(=O)O)cc1)c1[nH]c2ccccc2c1Cl)c1ccsc1C#N

EC50 [2]: 0.735 nM
AUC(0-t) at 24 h [10]: 0.883 µM·h
Cmax [11]: 246 nM
Vd [12]: 4.48 L/kg
IC50 [3]: 0.23 nM
clearance [41]: 29.7 mL/min/kg
IC50 (MCF7 [4]): 0.97 nM
bioavailability [39]: 33.7%
SMILES: CC/C(=C(/c1ccc(/C=C/C(=O)O)cc1)c1[nH]c2ccccc2c1Cl)c1ccc(Cl)cc1C#N
Activity [15]: Non-Toxic

EC50 [2]: 5.13 nM
IC50 [3]: 1.79 nM
IC50 (MCF7 [4]): 20 nM
SMILES: CC/C(=C(/c1ccc(/C=C/C(=O)O)cc1)c1[nH]c2ccccc2c1Cl)c1cc(Cl)sc1Cl

EC50 [2]: 2.6 nM
AUC(0-t) at 24 h [10]: 0.049 µM·h
Cmax [11]: 35 nM
Vd [12]: 4.28 L/kg
IC50 [3]: 0.23 nM
clearance [41]: 104 mL/min/kg
IC50 (MCF7 [4]): 4.85 nM
bioavailability [39]: 6.21%
SMILES: CC/C(=C(/c1ccc(/C=C/C(=O)O)cc1)c1[nH]c2ccccc2c1C#N)c1ccc(F)cc1Cl
